The target in one test is T1, MRSA Pyk (Staphylococcus aureus, UniProt Q6GG09).
T1 construct: made in house; host or cells: E. coli BL-21 (DE3)
Briefly: MRSA pyruvate kinase (PK) activity, continuous LDH-coupled assay. In kind it is biochemical, methicillin resistant S. aureus (MRSA252). Summed up: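 His-tagged MRSA PK (strain Sanger 252) and human PK isoforms expressed in E. coli BL-21 (DE3) and Ni-NTA purified, used at 15 nM in an LDH-coupled assay following NADH oxidation at 340 nm, 30° C, up to 5 min, ≤1% DMSO. IC50 from four-parameter variable-slope fit; Ki with PEP 2-20 mM, ADP fixed 2 mM, inhibitor 0-400 nM.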

For a further test, the system named is S. aureus (ATCC29213). Briefly: In vitro susceptibility, broth microdilution (MIC). In kind it is cell-based. Conditions: Staphylococcus aureus; S. aureus ATCC29213; 18-24 h, 37 C; read-out: Antimicrobial activity (MIC) S. aureus ATCC29213. The procedure, abridged: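 CLSI 2-fold serial broth microdilution; K. pneumoniae C238 grown in L-broth, S. aureus ATCC 29213 in Mueller Hinton broth, plates incubated 18–24 h at 37 °C. MIC taken as lowest concentration giving complete growth inhibition by OD600 versus compound-free wells, background-subtracted.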
(In general: Dilution methods test growth across graded concentrations, often in twofold steps.)

In test [1] the test system is A. baumannii (ATCC 17978). The test is described as follows: In vitro susceptibility, broth microdilution (MIC). Conditions: Acinetobacter baumannii, ATCC17978; A. baumannii ATCC 17978 (values marked *); read-out: Antimicrobial activity (MIC) A. baumannii. In kind it is cell-based. The procedure, abridged: (§1)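 MIC determined by CLSI 2-fold broth microdilution in cation-adjusted Mueller–Hinton broth at ~2.5×10^5 CFU/ml, final compound 0.031–64 μg/ml, 18–24 h at 37 °C. MIC is the lowest concentration giving complete growth inhibition by background-corrected OD600 versus compound-free wells; duplicate or triplicate wells, replicated at least twice.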

A further test deals with MRSA (ATCC BAA-1762). Briefly: In vitro susceptibility, broth microdilution (MIC). In kind it is cell-based, methicillin resistant S. aureus. Conditions: Staphylococcus aureus; MRSA ATCC BAA-1762; read-out: Antimicrobial activity (MIC) MRSA ATCC BAA1762. Summed up:
as §1

Another test relates to VRE#2 (2010A). The test is described as follows: In vitro susceptibility, broth microdilution (MIC). The conditions noted are these: VRE#2 (2010A); read-out: Antimicrobial activity (MIC) VRE#2. In kind it is cell-based, vancomycin resistant Enterococci. Summed up:
as §1

≈ marks a conversion by molar mass, not a printed value. Bounds are passed on as bounds.

T1 sequence (Q6GG09 whole entry): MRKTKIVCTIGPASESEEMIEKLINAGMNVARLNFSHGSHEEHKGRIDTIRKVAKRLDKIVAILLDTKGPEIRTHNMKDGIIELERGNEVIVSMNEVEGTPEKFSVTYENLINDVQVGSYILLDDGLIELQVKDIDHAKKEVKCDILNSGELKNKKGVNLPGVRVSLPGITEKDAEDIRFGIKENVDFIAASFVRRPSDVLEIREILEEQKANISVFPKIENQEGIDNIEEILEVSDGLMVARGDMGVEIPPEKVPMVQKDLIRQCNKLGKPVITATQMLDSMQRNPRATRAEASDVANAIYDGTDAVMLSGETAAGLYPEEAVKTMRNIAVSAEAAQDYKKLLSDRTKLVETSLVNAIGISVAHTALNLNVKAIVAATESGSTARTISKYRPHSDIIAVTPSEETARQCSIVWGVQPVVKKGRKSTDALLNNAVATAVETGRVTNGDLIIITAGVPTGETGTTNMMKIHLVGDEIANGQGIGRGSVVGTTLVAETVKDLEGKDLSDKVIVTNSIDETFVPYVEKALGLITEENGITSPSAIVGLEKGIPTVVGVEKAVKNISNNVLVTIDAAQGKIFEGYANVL

A word on the IC50: it is the concentration that inhibits the measured activity by half. A higher IC50 goes with lower potency. A word on the MIC: it is the least concentration at which growth counts as inhibited. For the compound `NC(=O)[C@@H]1CCCN1CCNC(=O)c1c(-c2cc3cc(Cl)ccc3[nH]2)[nH]c2cc(Br)ccc12` [Compound 120, (S)-6-Bromo-N-(2-(2-carbamoylpyrrolidin-1-yl)ethyl)-5′-chloro-1H,1′H-[2,2′-biindole]-3-carboxamide], the half-inhibitory concentration (IC50) against MRSA Pyk was < 100 nM. The MIC (in the test with S. aureus (ATCC29213); in test [1]) was > 64 µg/mL in each case.
For `COCC(=O)N1CCCN(CCNC(=O)c2c(-c3cc4cc(Cl)ccc4[nH]3)[nH]c3cc(Br)ccc23)CC1` [Compound 121, 6-Bromo-5′-chloro-N-(2-(4-(2-methoxyacetyl)-1,4-diazepan-1-yl)ethyl)-1H,1′H-[2,2′-biindole]-3-carboxamide], the 50% inhibitory concentration (IC50) against MRSA Pyk was < 100 nM. Moreover, the MIC (in the test on S. aureus (ATCC29213); in test [1]) was > 64 µg/mL each time.
With `O=C(NCCN1CCC[C@H]1C(=O)O)c1c(-c2cc3cc(Cl)ccc3[nH]2)[nH]c2cc(Br)ccc12` [Compound 125, (2-(6-Bromo-5′-chloro-1H,1′H-[2,2′-biindole]-3-carboxamido)ethyl)-L-proline], the IC50 on MRSA Pyk is < 100 nM. Moreover, the MIC (in the test with S. aureus (ATCC29213); in test [1]) was > 64 µg/mL each time.
As for `O=C1CN(CCNC(=O)c2c(-c3cc4cc(Cl)ccc4[nH]3)[nH]c3cc(Br)ccc23)CCN1` [Compound 127, 6-bromo-5′-chloro-N-(2-(3-oxopiperazin-1-yl)ethyl)-1H,1′H-2,2′-biindole-3-carboxamide], the half-inhibitory concentration (IC50) against MRSA Pyk was < 100 nM. In addition, the minimum inhibitory concentration (MIC) (in the test with S. aureus (ATCC29213); in test [1]) was > 64 µg/mL throughout.
Turning to `O=C(NCCc1ccncc1)c1c(-c2cc3cc(Cl)ccc3[nH]2)[nH]c2cc(Br)ccc12` [Compound 142, 6-bromo-5′-chloro-N-(2-(pyridin-4-yl)ethyl)-1H,1′H-[2,2′-biindole]-3-carboxamide], the IC50 against MRSA Pyk is < 100 nM. For the same compound, the MIC (in the test on S. aureus (ATCC29213); in test [1]) was > 64 µg/mL in each case.
On to `COc1ccc(NC(=O)Nc2nc3cc(Br)ccc3s2)cc1` [Compound 152, 1-(5-bromobenzo[d]thiazol-2-yl)-3-(4-methoxyphenyl)urea], for which the MIC in the test with S. aureus (ATCC29213) is 1 µg/mL (≈ 2.64 µM); in the test with MRSA (ATCC BAA-1762) it was 1 µg/mL (≈ 2.64 µM); in the test with VRE#2 (2010A), 2 µg/mL (≈ 5.29 µM); in test [1], > 64 µg/mL.
Consider `O=C(Nc1ccc(Cl)c(Cl)c1)Nc1nc2cc(Br)ccc2s1` [Compound 155, 1-(5-bromobenzo[d]thiazol-2-yl)-3-(3,4-dichlorophenyl)urea], for which the MIC in the test with S. aureus (ATCC29213) was 0.5 µg/mL (≈ 1.2 µM); in the test on MRSA (ATCC BAA-1762) it was 0.5 µg/mL (≈ 1.2 µM); in the test on VRE#2 (2010A), 0.5 µg/mL (≈ 1.2 µM); in test [1] it was > 64 µg/mL.
In the case of `CC(=O)OCCCNC(=O)c1c(-c2cc3cc(Cl)ccc3[nH]2)[nH]c2cc(Br)ccc12` [Compound 183, 3-(6-Bromo-5′-chloro-1H,1′H-[2,2′-biindole]-3-carboxamido)propyl Acetate], the IC50 on MRSA Pyk was < 100 nM. The MIC (in the test with S. aureus (ATCC29213); in test [1]) was > 64 µg/mL each time.
Turning to `CC(C)[C@@H](C(=O)OCCCNC(=O)c1c(-c2cc3cc(Cl)ccc3[nH]2)[nH]c2cc(Br)ccc12)N(C)C` [Compound 185, 3-(6-Bromo-5′-chloro-1H,1′H-[2,2′-biindole]-3-carboxamido)propyl Dimethyl-L-valinate], the concentration for half-maximal inhibition (IC50) against MRSA Pyk is < 100 nM. Also, the MIC (with S. aureus (ATCC29213); in test [1]) was > 64 µg/mL each time.
For the compound `COC(=O)COc1cc2[nH]c(-c3cc4ccc(Br)cc4[nH]3)cc2cc1Cl` [Compound 188, Methyl 2-((6′-bromo-5-chloro-1H,1′H-[2,2′-biindol]-6-yl)oxy)acetate], the IC50 on MRSA Pyk was < 100 nM. The MIC (in the test on S. aureus (ATCC29213); in test [1]) was > 64 µg/mL in each case.
As to `CN(C)CCNC(=O)COc1cc2[nH]c(-c3cc4ccc(Br)cc4[nH]3)cc2cc1Cl` [Compound 189, 2-((6′-Bromo-5-chloro-1H,1′H-[2,2′-biindol]-6-yl)oxy)-N-(2-(dimethylamino)ethyl)acetamide], the IC50 on MRSA Pyk was < 100 nM. Besides, the MIC (in the test with S. aureus (ATCC29213); in test [1]) was > 64 µg/mL in each case.
For `O=C(COc1cc2[nH]c(-c3cc4ccc(Br)cc4[nH]3)cc2cc1Cl)NCCO` [Compound 192, 2-((6′-Bromo-5-chloro-1H,1′H-[2,2′-biindol]-6-yl)oxy)-N-(2-hydroxyethyl)acetamide], at MRSA Pyk, the IC50 was < 100 nM. In addition, the MIC (in the test with S. aureus (ATCC29213); in test [1]) was > 64 µg/mL each time.
`CN1CCN(CCNC(=O)COc2cc3[nH]c(-c4cc5ccc(Br)cc5[nH]4)cc3cc2Cl)C(c2ccccc2)C1` (centres unmarked) [Compound 194, 2-((6′-Bromo-5-chloro-1H,1′H-[2,2′-biindol]-6-yl)oxy)-N-(2-(4-methyl-2-phenylpiperazin-1-yl)ethyl)acetamide]: the MIC (with S. aureus (ATCC29213); in test [1]) was > 64 µg/mL each time.
`O=C(COc1cc2[nH]c(-c3cc4ccc(Br)cc4[nH]3)cc2cc1Cl)NS(=O)(=O)c1ccc(NC(=O)C(F)(F)F)cc1` [Compound 195, N-(4-(N-(2-((6′-Bromo-5-chloro-1H, 1′H-[2,2′-biindol]-6-yl)oxy)acetyl)sulfamoyl)phenyl)-2,2,2-trifluoroacetamide]: the IC50 against MRSA Pyk is < 100 nM. In addition, the results for the MIC (in the test with S. aureus (ATCC29213); in the test with MRSA (ATCC BAA-1762); in test [1]) were 64 µg/mL (≈ 95.5 µM), 64 µg/mL (≈ 95.5 µM) and > 64 µg/mL, respectively.
For the compound `O=C(O)CNC(=O)c1c(-c2cc3cc(Cl)ccc3[nH]2)[nH]c2cc(Br)ccc12` [Compound 204, (6-Bromo-5′-chloro-1H,1′H-[2,2′-biindole]-3-carbonyl)glycine], on MRSA Pyk, the IC50 is < 100 nM. Further, the MIC in the test with S. aureus (ATCC29213) is 64 µg/mL (≈ 143 µM); in test [1], > 64 µg/mL.
Regarding `Clc1cnc2nc(-c3cc4ccc(Br)cc4[nH]3)[nH]c2c1` [Compound 209, 2-(6-Bromo-1H-indol-2-yl)-6-chloro-1H-imidazo[4,5-b]pyridine], the minimum inhibitory concentration (MIC) (with S. aureus (ATCC29213); in test [1]) was > 64 µg/mL each time.
Turning to `Brc1ccc2cc(-c3nc4ncc(Br)cc4[nH]3)[nH]c2c1` [Compound 210, 6-Bromo-2-(6-bromo-1H-indol-2-yl)-1H-imidazo[4,5-b]pyridine], the MIC (in the test with S. aureus (ATCC29213); in test [1]) was > 64 µg/mL each time.
Turning to `OCCn1c(-c2cc3ccc(Br)cc3[nH]2)nc2cc(Cl)c(Cl)cc21` [Compound 211, 2-(2-(6-Bromo-1H-indol-2-yl)-5,6-dichloro-1H-benzo[d]imidazol-1-yl)ethan-1-ol], the minimal inhibitory concentration (MIC) (in the test with S. aureus (ATCC29213); in test [1]) was > 64 µg/mL in each case.
For the compound `CN(C)CCn1c(-c2cc3ccc(Br)cc3[nH]2)nc2cc(Cl)c(Cl)cc21` [Compound 212, 2-(2-(6-Bromo-1H-indol-2-yl)-5,6-dichloro-1H-benzo[d]imidazol-1-yl)-N,N-dimethylethan-1-amine], the MIC (with S. aureus (ATCC29213); in test [1]) was > 64 µg/mL in each case.
For `O=C(O)Cn1c(-c2cc3ccc(Br)cc3[nH]2)nc2cc(Cl)c(Cl)cc21` [Compound 213, 2-(2-(6-Bromo-1H-indol-2-yl)-5,6-dichloro-1H-benzo[d]imidazol-1-yl)acetic Acid], the MIC (with S. aureus (ATCC29213); in test [1]) was > 64 µg/mL throughout.
With `CC(C)(C)OC(=O)CCn1c(-c2cc3ccc(Br)cc3[nH]2)nc2cc(Cl)c(Cl)cc21` [Compound 214, tert-Butyl 3-(2-(6-bromo-1H-indol-2-yl)-5,6-dichloro-1H-benzo[d]imidazol-1-yl)propanoate], the MIC (with S. aureus (ATCC29213); in test [1]) was > 64 µg/mL each time.
